The test system of series [1] is dopamine transporter (DAT). Put plainly: Dopaminergic neuronal protective activity in MPTP-treated C57BL/6 mouse: DAT protein level in striatum (Western blot). The note with it: 10 mg/kg oral at 30 min, 24 h, 48 h after MPTP s.c.; striatum 72 h after MPTP; mouse without MPTP = 100%. It is filed as in vivo. Here is the method:
(§1) Using a mouse having MPTP-induced dopaminergic neurons (Chan P. et al., J Neurochem, 57, 348-351 (1991)), the dopaminergic neuronal protective activity was evaluated based on the protein levels of tyrosine hydroxylase (TH) and dopamine transporter (DAT), which are dopaminergic neuronal marker proteins, and a dopamine content in the brain corpus striatum region after the compound administration (Mori A. et al., Neurosci Res, 51, 265-274 (2005)).
(§2) A male C57BL/6 mouse (provided by Japan Charles River Inc., 10 to 12 weeks) was used as a test animal. MPTP was dissolved in a physiological salt solution so that the concentration was 4 mg/ml, and then administered to the mouse subcutaneously in a volume of 10 ml/kg. A test compound was suspended in a 5% gum arabic/physiological salt solution (w/v) so that the concentration was 1 mg/ml. Each of the test compounds or solvents thereof was orally administered to the mouse after 30 minutes, 24 hours, and 48 hours of the MPTP administration. The mouse was decapitated after 72 hours of the MPTP administration, the brain was removed, and each side of the striatum was dissected.
(§3) The left striatum was used as a sample to detect the protein level by Western blot analysis. Each tissue was homogenized in a HEPES buffer sucrose solution (0.32 M sucrose, 4 μg/ml pepstatin, 5 μg/ml aprotinin, 20 μg/ml trypsin inhibitor, 4 μg/ml leupeptin, 0.2 mM phenylmethanesulfonyl fluoride, 2 mM ethylenediaminetetraacetic acid (EDTA), 2 mM ethylene glycol bis(β aminoethyl ether) tetraacetic acid, 20 mM HEPES, pH 7.2), and assayed for protein using a bicinchoninic acid kit for protein assay (provided by Pierce Corporation). Each homogenized sample, having an equal amount of protein that had been dissolved in a Laemmli sample buffer solution, was subjected to electrophoresis through a sodium dodecyl sulfate polyacrylamide gel. […] Subsequently, a horseradish peroxidase-labeled secondary antibody (a product of Amersham K.K.) for each primary antibody was fixed, and the chemiluminescence associated with enzyme activity of peroxidase was detected using a X-ray film. The density of the protein band on the film was analyzed using a densitometer (a product of Bio-rad Laboratories Inc.) to obtain the TH value relative to Na^+/K^+-ATPase and the DAT value relative to actin.
(§4) In both analyses, the value of the sample derived from the MPTP-induced mouse in which only the test compound or the solvent was administered was expressed relative to the value of the sample derived from the mouse without MPTP treatment (100%). Values were analyzed statistically using a nonclinical statistical analysis system, and values of significance probability less than 0.05 were defined as significant.
In general terms: Immunoblotting shows a protein as a band on a membrane.

Series [2] concerns tyrosine hydroxylase (TH). The experiment in a line: Dopaminergic neuronal protective activity in MPTP-treated C57BL/6 mouse: TH protein level in striatum (Western blot). Type of series: in vivo. The note with it: 10 mg/kg oral at 30 min, 24 h, 48 h after MPTP s.c.; striatum 72 h after MPTP; mouse without MPTP = 100%. Here is the method: as §1, §2, §3, §4
Series [3] has as its system dopamine content in the brain corpus striatum region. Put plainly: Dopaminergic neuronal protective activity in MPTP-treated C57BL/6 mouse: dopamine content in striatum (HPLC). Type of series: in vivo. Particulars: 10 mg/kg oral at 30 min, 24 h, 48 h after MPTP s.c.; striatum 72 h after MPTP; mouse without MPTP = 100%. Here is the method: as §1, §2
The right striatum, the tissue weight of which was measured immediately after dissection, was used as an analysis sample for determining the dopamine content. Each tissue was homogenized in a 0.1 N perchloric acid solution containing isoproterenol as an internal standard substance of the measurement, using an ultrasonic homogenizer while being cooled with ice. The supernatant obtained from 20,000 g of homogenate that had been centrifuged at 4° C. for 15 minutes was subjected to a high-performance liquid chromatography with a reversed phase column (a product of Eicom Corporation). A mobile phase 15% methanol 0.1 M citric acid/0.1 M sodium acetate buffer solution (containing 190 mg/L 1-sodium octane sulfonate and 5 mg/L EDTA, pH 3.5) was flowed at a rate of 0.5 ml/min, and the dopamine peak of each sample was detected using an electrochemical detector (applied voltage: +750 mV vs. Ag/AgCl, a product of Eicom Corporation). With reference to the identified dopamine peak, the dopamine content per tissue weight was calculated in each sample using analysis software (a product of Gilson Inc.).
as §4

Series [4] deals with human neuroblastoma cell lines SH-SY5Y treated with 1-methyl-4-phenylpyridinium (MPP+). The experiment in a line: Improvement of mitochondrial function (Alamar Blue mitochondrial oxidation reduction activity) in MPP+-treated SH-SY5Y cells. Type of series: cell-based. The note with it: 1.5 mM MPP+, relative to cells in DMSO alone = 100%, read-out: Fluorescence Intensity (%); for activity at 0.01 µg/mL: compound 0.01 μg/ml; for activity at 0.03 µg/mL: compound 0.03 μg/ml; for activity at 0.1 µg/mL: compound 0.1 μg/ml; for activity at 0.3 µg/mL: compound 0.3 μg/ml; for activity at 1 µg/mL: compound 1 μg/ml. Here is the method:
In human neuroblastoma cell lines SH-SY5Y in which mitochondrial function was damaged by MPP^+ treatment (Bollimuntha S. et al., J Biol Chem, 280, 2132-2140 (2005) and Shang T. et al., J Biol Chem, 280, 34644-34653 (2005)), the improvement of mitochondrial function was evaluated on the basis of the measurement value for mitochondrial oxidation reduction activity using Alamar Blue fluorescent dye after the compound addition (Nakai M. et al, Exp Neurol, 179, 103-110 (2003)).
The human neuroblastoma cell lines SH-SY5Y were cultured in Dulbecco's Modified Eagle's Medium containing 10% fetal bovine serum (DMEM containing 50 units/ml penicillin and 50 μg/ml streptomycin as antibiotics) at 37° C. in the presence of 5% carbon dioxide. Cells were scattered on a poly-D-lysine-coated 96-well black plate at a concentration of 3−6×10^4 cells/cm^2 (medium amount: 100 μl/well) and cultured in the medium for two days. Further, the medium was changed to DMEM containing a 1% N2 supplement (N2-DMEM) or to a medium (100 μl/well) in which 1.5 mM MPP^+ was dissolved. The cells were cultured therein for 39 to 48 hours, and then subjected to a mitochondrial oxidation reduction activity measurement system. A sample compound that had been previously dissolved in dimethyl sulfoxide (DMSO) was diluted with N2-DMEM and added in a volume of 10 μl/well 24 hours before the activity measurement (final compound concentration: 0.01 to 1 μg/ml).
After removal of the medium by suction, a balanced salt solution containing 10% Alamar Blue (154 mM sodium chloride, 5.6 mM potassium chloride, 2.3 mM calcium chloride, 1.0 mM magnesium chloride, 3.6 mM sodium hydrogen carbonate, 5 mM glucose, 5 mM HEPES, pH 7.2) was added in a volume of 100 μl/well, and reacted in an incubator at 37° C. for 1 hour. The fluorescent intensity was detected using a fluorescence detector (a product of Hamamatsu Photonics K.K., excitation wavelength: 530 nm, measurement wavelength: 580 nm) to thereby measure the mitochondrial oxidation reduction activity.
The fluorescent intensity of the well of the cells cultured in a medium containing MPP^+ and each of the sample compounds was relatively evaluated based on the 100% fluorescent intensity of the well of the cells cultured in a medium containing DMSO alone (final concentration: 0.1%).
A general note: Alamar Blue is a resazurin reagent that responds to reducing activity.

The term melting point denotes the temperature, or range, at which the solid turns liquid.

SMILES strings stand for the structures.

`CCCOc1ccc(C)c2c(=O)c(-c3ccc(OC)cc3)c[nH]c12` [Example 1, 3-(4-Methoxyphenyl)-5-methyl-8-propoxy-1H-quinolin-4-one]: the melting point fell in the range of 192 to 193 °C. For the same molecule, in series [1], the “Protein level of dopamine transporter (DAT) in the brain corpus striatum region (% of control)” value is 84.7 % of control. Further, the “Protein level of tyrosine hydroxylase (TH) in the brain corpus striatum region (% of control)” value in series [2] is recorded as 86.2 % of control. Also, the “Dopamine content in the brain corpus striatum region (% of control)” value (“Dopamine content … (% of control)” below) in series [3] is recorded as 39.6 % of control. Besides, in series [4], the activity at 0.01 µg/mL amounted to 58%, the activity at 0.03 µg/mL was found to be 68%, the activity at 0.1 µg/mL is 73% and the activity at 0.3 µg/mL came to 66%. Also, the activity at 1 µg/mL in series [4] came out at 46%.

The molecule `CCCOc1ccc(C2CC2)c2c(=O)c(-c3ccc(OC)cc3)c[nH]c12` [Example 65, 5-Cyclopropyl-3-(4-methoxyphenyl)-8-propoxy-1H-quinolin-4-one] came in with a melting point of 168 to 170 °C. In addition, the “Protein level of dopamine transporter (DAT) in the brain corpus striatum region (% of control)” value in series [1] is given as 73.0 % of control. Also, in series [2], the “Protein level of tyrosine hydroxylase (TH) in the brain corpus striatum region (% of control)” value is 65.2 % of control. The “Dopamine content … (% of control)” value in series [3] is reported as 31.2 % of control. Also, in series [4], the activity at 0.01 µg/mL is 59%, the activity at 0.03 µg/mL is 73%, the activity at 0.1 µg/mL turned out to be 78% and the activity at 0.3 µg/mL worked out at 66%. Also, the activity at 1 µg/mL in series [4] was 20%.

Take `COc1ccc(-c2c[nH]c3c(-n4ccnc4)ccc(C)c3c2=O)cc1` [Example 67, 8-Imidazol-1-yl-3-(4-methoxyphenyl)-5-methyl-1H-quinolin-4-one]: the melting point was 196 to 198 °C. Also, the “Protein level of dopamine transporter (DAT) in the brain corpus striatum region (% of control)” value in series [1] was 50.9 % of control. Further, in series [2], the “Protein level of tyrosine hydroxylase (TH) in the brain corpus striatum region (% of control)” value is reported as 77.9 % of control. Also, the “Dopamine content … (% of control)” value in series [3] is recorded as 26.7 % of control. In addition, in series [4], the activity at 0.01 µg/mL was 45%, the activity at 0.03 µg/mL was found to be 54%, the activity at 0.1 µg/mL was found to be 61% and the activity at 0.3 µg/mL is 57%. Further, the activity at 1 µg/mL in series [4] was found to be 42%.

With `CCCSc1ccc(C)c2c(=O)c(-c3ccc(OC)cc3)c[nH]c12` [Example 70, 3-(4-Methoxyphenyl)-5-methyl-8-propylsulfanyl-1H-quinolin-4-one], the melting point fell in the range of 132 to 135 °C. Also, in series [1], the “Protein level of dopamine transporter (DAT) in the brain corpus striatum region (% of control)” value was 64.1 % of control. In addition, the “Protein level of tyrosine hydroxylase (TH) in the brain corpus striatum region (% of control)” value in series [2] is reported as 90.2 % of control. The “Dopamine content … (% of control)” value in series [3] is reported as 26.5 % of control. Besides, in series [4], the activity at 0.01 µg/mL is 48%, the activity at 0.03 µg/mL is 56%, the activity at 0.1 µg/mL was 61% and the activity at 0.3 µg/mL is 50%. Besides, in series [4], the activity at 1 µg/mL was determined as 22%.

`CCCOc1ccc(C)c2c(=O)c(-c3ccncc3)c[nH]c12` [Example 95, 5-Methyl-8-propoxy-3-pyridin-4-yl-1H-quinolin-4-one] yielded a melting point of 112 to 113 °C. For the same molecule, in series [4], the activity at 0.01 µg/mL turned out to be 51%, the activity at 0.03 µg/mL turned out to be 56%, the activity at 0.1 µg/mL turned out to be 57% and the activity at 0.3 µg/mL was 61%. Besides, the activity at 1 µg/mL in series [4] was determined as 47%.

In the case of `COc1ccc(-c2c[nH]c3c(-c4ccco4)ccc(C)c3c2=O)cc1` [Example 96, 8-Furan-2-yl-3-(4-methoxyphenyl)-5-methyl-1H-quinolin-4-one], the melting point was 129 to 131 °C. In addition, in series [4], the activity at 0.01 µg/mL is 54%, the activity at 0.03 µg/mL was 64%, the activity at 0.1 µg/mL is 68% and the activity at 0.3 µg/mL turned out to be 60%. Further, the activity at 1 µg/mL in series [4] is 23%.

For `COc1ccc(OCC2CC2)c2[nH]c(C)c(-c3ccco3)c(=O)c12` [Example 109, 8-Cyclopropylmethoxy-3-furan-2-yl-5-methoxy-2-methyl-1H-quinolin-4-one], the melting point was 189 to 190 °C. In series [4], the activity at 0.01 µg/mL amounted to 49%, the activity at 0.03 µg/mL was 62%, the activity at 0.1 µg/mL was 65% and the activity at 0.3 µg/mL amounted to 82%. Moreover, the activity at 1 µg/mL in series [4] came out at 73%.

Values taken from patent US20130217678A1, “PHARMACEUTICAL AGENT COMPRISING QUINOLONE COMPOUND” (OTSUKA PHARMACEUTICAL CO., LTD., priority 2008, published 2013).
